This is an account of results in patent US8927715B2, “Inhibitors of 11β-hydroxysteroid dehydrogenase type 1” (Vitae Pharmaceuticals, Inc., priority 2006, dated 2015).

Sequence of human 11β-HSD1 (P28845 whole entry): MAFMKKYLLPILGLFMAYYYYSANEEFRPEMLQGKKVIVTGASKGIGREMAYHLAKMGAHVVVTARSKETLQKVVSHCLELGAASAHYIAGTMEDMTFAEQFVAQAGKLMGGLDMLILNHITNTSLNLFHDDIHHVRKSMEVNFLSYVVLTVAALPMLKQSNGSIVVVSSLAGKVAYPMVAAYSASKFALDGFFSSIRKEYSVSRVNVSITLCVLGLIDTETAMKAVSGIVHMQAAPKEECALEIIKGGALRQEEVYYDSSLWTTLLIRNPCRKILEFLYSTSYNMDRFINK

The assay addresses human 11β-HSD1 (Homo sapiens, UniProt P28845). The assay is described as follows: Inhibition of a microsomal preparation of 11β-HSD1, SPA (Biological Test Example 2). Particulars: read-out: Biological Test Example 2 (IC50 class). Also on record: expressed in transfected cells; host or cells: CHO cells (microsomes). It counts as biochemical. The procedure: All reactions are carried out at room temperature in 96 well clear flexible PET Microbeta plates (PerkinElmer). […] After a 10 minute pre-incubation, 50 μL of enzyme solution containing microsomes isolated from CHO cells overexpressing human 11β-HSD1 (10-20 μg/ml of total protein) is added, and the plates are then incubated for 90 minutes at room temperature. The reaction is stopped by adding 50 μl of the SPA beads suspension containing […] 18β-glycyrrhetinic acid, 5 mg/ml protein A coated YSi SPA beads (GE Healthcare) and 3.3 μg/ml of anti-cortisol antibody (East Coast Biologics) in Superblock buffer (Bio-Rad). The plates are then shaken for 120 minutes at room temperature, and the SPA signal corresponding to [^3H]cortisol is measured on a Microbeta plate reader.
Turning to `CCOC(=O)CC1CC2(CCN(C(=O)NC3C4CC5CC(C4)CC3C5)CC2)c2cccc(C)c21` (racemic) [Example 49, (±)-Ethyl 2(1′-((2-adamantyl)carbamoyl)-4-methyl-2,3-dihydrospiro[indene-1,4′-piperidine]-3-yl)acetate], the concentration for half-maximal inhibition (IC50) is below 50 nM.

As for `CCOC(=O)CCN1Cc2ccccc2C2(CCN(C(=O)OC3C4CC5CC(C4)CC3C5)CC2)C1` (stereo not drawn) [Example 32], the IC50 is below 50 nM.

On to `CC(C)(C)OC(=O)N1CC2(CCN(C(=O)OC3C4CC5CC3CC(C(N)=O)(C5)C4)CC2)c2ccccc21` (stereo not drawn) [Example 85, 1-Tert-butyl 1′-(trans-1-carbamoyl-4-adamantyl)spiro[indoline-3,4′-piperidine]-1,1′-dicarboxylate], for which the IC50 is below 50 nM.

As to “3-(1′-(2-Adamantyloxycarbonyl)-1H-spiro[isoquinoline-4,4′-piperidine]-2(3H)-ylsulfonyl)propanoic acid [Example 109]”, the 50% inhibitory concentration (IC50) is below 50 nM.

As for `COc1ccc2c(c1)C1(CCN(C(=O)NC3C4CC5CC(C4)CC3C5)CC1)CC2CC(=O)O` (racemic) [Example 59, (±)-2-(1′-((2-Adamantyl)carbamoyl)-6-methoxy-2,3-dihydrospiro[indene-1,4′-piperidine]-3-yl)acetic acid], the IC50 was below 50 nM.

Turning to `O=C(O)CC1CC2(CCN(C(=O)NC3C4CC5CC(C4)CC3C5)CC2)c2ccc(Cl)cc21` (racemic) [Example 56, (±)-2-(1′-((2-Adamantyl)carbamoyl)-5-chloro-2,3-dihydrospiro[indene-1,4′-piperidine]-3-yl)acetic acid], the IC50 was below 50 nM.

Regarding `O=C(O)CC1CC2(CCN(C(=O)NC3C4CC5CC(C4)CC3C5)CC2)c2c(Cl)cccc21` (racemic) [Example 52, (±)-2-(1′-((2-Adamantyl)carbamoyl)-7-chloro-2,3-dihydrospiro[indene-1,4′-piperidine]-3-yl)acetic acid], the IC50 was below 50 nM.

Consider `O=C(O)CC1CC2(CCN(C(=O)NC34CC5CC(CC(C5)C3)C4)CC2)c2c(Br)cccc21` (racemic) [Example 62, (±)-2-(7-Bromo-1′-((1-adamantyl)carbamoyl)-2,3-dihydrospiro[indene-1,4′-piperidine]-3-yl)acetic acid], for which the IC50 was below 50 nM.

On to `O=C(O)CCC(=O)N1CC2(CCN(C(=O)NC3C4CC5CC(C4)CC3C5)CC2)c2ccccc21` (stereo not drawn) [Example 90, 4-(1′-(2-Adamantylcarbamoyl)spiro[indoline-3,4′-piperidine]-1-yl)-4-oxobutanoic acid], for which the IC50 was below 50 nM.

Consider `Cc1ccc2c(c1)C1(CCN(C(=O)NC3C4CC5CC(C4)CC3C5)CC1)CC2CC(=O)O` (racemic) [Example 57, (±)-2-(1′-((2-Adamantyl)carbamoyl)-6-methyl-2,3-dihydrospiro[indene-1,4′-piperidine]-3-yl)acetic acid], for which the half-maximal inhibitory concentration (IC50) is below 50 nM.

As for `CN1C(C)(C)c2ccccc2C12CCN(C(=O)NC1C3CC4CC(C3)CC1C4)CC2` (stereo not drawn) [Example 103, N-(2-Adamantyl)-2,3,3-trimethylspiro[isoindoline-1,4′-piperidine]-1′-carboxamide], the 50% inhibitory concentration (IC50) was below 50 nM.

With `CN1CCN(C(=O)CC2CC3(CCN(C(=O)NC4C5CC6CC(C5)CC4C6)CC3)c3c(Br)cccc32)CC1` (stereo not drawn) [Example 112, 7-Bromo-N-(2-adamantyl)-3-(2-(4-methylpiperazin-1-yl)-2-oxoethyl)-2,3-dihydrospiro[indene-1,4′-piperidine]-1′-carboxamide], the IC50 was below 50 nM.

As to `NCC1CC2(CCN(C(=O)OC3C4CC5CC(C4)CC3C5)CC2)c2c(Br)cccc21` (racemic) [Example 124, (±)-2-Adamantyl 3-(aminomethyl)-7-bromo-2,3-dihydrospiro[indene-1,4′-piperidine]-1′-carboxylate], the IC50 was below 50 nM.

For `O=C(NC1C2CC3CC(C2)CC1C3)N1CCC2(CC1)OCc1ccccc12` (stereo not drawn) [Example 83, N-(2-Adamantyl)-3H-spiro[isobenzofuran-1,4′-piperidine]-1′-carboxamide], the half-inhibitory concentration (IC50) is below 50 nM.

As for `COC(=O)CC1CCC2(CC1)CCN(C(=O)OC1C3CC4CC(C3)CC1C4)CC2` (stereo not drawn) [Example 79, (2-Adamantyl) 9-(2-methoxy-2-oxoethyl)-3-azaspiro[5.5]undecane-3-carboxylate], the IC50 was below 50 nM.

Consider `O=C(O)CC1CCC2(CC1)CCN(C(=O)OC1C3CC4CC(C3)CC1C4)CC2` (stereo not drawn) [Example 80, 2-(3-((2-Adamantyl)oxycarbonyl)-3-azaspiro[5.5]undecan-9-yl)acetic acid], for which the concentration for half-maximal inhibition (IC50) lay within 50 to 1000 nM.

In the case of `COC(=O)CC1CCC2(CC1)CCN(C(=O)NC1C3CC4CC(C3)CC1C4)CC2` (stereo not drawn) [Example 81, Methyl 2-(3-((2-adamantyl)carbamoyl)-3-azaspiro[5.5]undecan-9-yl)acetate], the IC50 was below 50 nM.

As to `O=C(NC1C2CC3CC(C2)CC1C3)N1CCCC2(Cc3ccccc3C2=O)C1` (stereo not drawn) [27, Step 1 Product], the IC50 was below 50 nM.

As to `CCOC(=O)CC1CC2(CCN(C(=O)NC3C4CC5CC(C4)CC3C5)CC2)c2ccc(Cl)cc21` (racemic) [Example 55, (±)-Ethyl 2-(1′-((2-adamantyl)carbamoyl)-5-chloro-2,3-dihydrospiro[indene-1,4′-piperidine]-3-yl)acetate], the IC50 is below 50 nM.

For the compound `CN(C)CCN(C)C(=O)CC1CC2(CCN(C(=O)NC3C4CC5CC(C4)CC3C5)CC2)c2c(Br)cccc21` (stereo not drawn) [Example 116], the concentration for half-maximal inhibition (IC50) was below 50 nM.

As to `Cc1cccc2c1C1(CCN(C(=O)NC3C4CC5CC(C4)CC3C5)CC1)CC2CC(=O)O` (racemic) [Example 48, (±)-2-(1′-((2-Adamantyl)carbamoyl)-7-methyl-2,3-dihydrospiro[indene-1,4′-piperidine]-3-yl)acetic acid], the IC50 is below 50 nM.

For the compound `CC(C)(C(=O)O)C1CC2(CCN(C(=O)NC3C4CC5CC(C4)CC3C5)CC2)c2c(Br)cccc21` (racemic) [Example 68, (±)-2-(7-Bromo-1′-((2-adamantyl)carbamoyl)-2,3-dihydrospiro[indene-1,4′-piperidine]-3-yl-2-methylpropanoic acid], the half-maximal inhibitory concentration (IC50) was below 50 nM.

On to `N#CCC1CC2(CCN(C(=O)NC3C4CC5CC(C4)CC3C5)CC2)c2ccccc21` (racemic) [Example 45], for which the IC50 is below 50 nM.

Take `O=C(O)[C@@H]1C[C@H]1C(=O)N1Cc2ccccc2C2(CCN(C(=O)OC3C4CC5CC(C4)CC3C5)CC2)C1` (mixture of isomers) [Example 100, (1RS,2RS)-2-(1′-(2-Adamantyloxycarbonyl)-2,3-dihydro-1H-spiro[isoquinoline-4,4′-piperidine]-2-ylcarbonyl)cyclopropanecarboxylic acid]: the IC50 was below 50 nM.

In the case of `CCOC(=O)CC1CC2(CCN(C(=O)NC3C4CC5CC(C4)CC3C5)CC2)c2c(Cl)cccc21` (racemic) [Example 51, (±)-Ethyl 2-(1′-((2-adamantyl)carbamoyl)-7-chloro-2,3-dihydrospiro[indene-1,4′-piperidine]-3-yl)acetate], the IC50 was below 50 nM.

Take `CC(C)(C)OC(=O)N1Cc2ccccc2C2(CCN(C(=O)OC3C4CC5CC(C4)CC3C5)CC2)C1` (stereo not drawn) [Example 37, 2-Tert-butyl 1′-(2-adamantyl) 1H-spiro[isoquinoline-4,4′-piperidine]-1′,2(3H)-dicarboxylate]: the IC50 is below 50 nM.

Regarding `CCOC(=O)CC1CC2(CCN(C(=O)NC3C4CC5CC(C4)CC3C5)CC2)c2c(Br)cccc21` (racemic) [Example 42, (±)-Ethyl 2-(7-bromo-1′-((2-adamantyl)carbamoyl)-2,3-dihydrospiro[indene-1,4′-piperidine]-3-yl)acetate], the IC50 is below 50 nM.

On to `CN(C)CC1CC2(CCN(C(=O)OC3C4CC5CC(C4)CC3C5)CC2)c2c(Br)cccc21` (racemic) [Example 125, (±)-2-Adamantyl 7-bromo-3-((dimethylamino)methyl)-2,3-dihydro spiro[indene-1,4′-piperidine]-1′-carboxylate], for which the IC50 was below 50 nM.

On to `CN(C)CCNC(=O)CC1CC2(CCN(C(=O)NC3C4CC5CC(C4)CC3C5)CC2)c2c(Br)cccc21` (stereo not drawn) [Example 114, 7-Bromo-N-(2-adamantyl)-3-(2-(2-(dimethylamino)ethylamino)-2-oxoethyl)-2,3-dihydrospiro[indene-1,4′-piperidine]-1′-carboxamide], for which the IC50 is below 50 nM.

For `CC(C)(CC(=O)O)CC(=O)N1CC2(CCN(C(=O)NC3C4CC5CC(C4)CC3C5)CC2)c2ccccc21` (stereo not drawn) [Example 96, 5-(1′-(2-Adamantylcarbamoyl)spiro[indoline-3,4′-piperidine]-1-yl)-3,3-dim ethyl-5-oxopentanoic acid], the IC50 is below 50 nM.

Take `CCOC(=O)C(C)(C)C1CC2(CCN(C(=O)NC3C4CC5CC(C4)CC3C5)CC2)c2c(Br)cccc21` (racemic) [Example 67, (±)-Ethyl 2-(7-bromo-1′-((2-adamantyl)carbamoyl)-2,3-dihydrospiro[indene-1,4′-piperidine]-3-yl)-2-methylpropanoate]: the IC50 is below 50 nM.

Consider `CCOC(=O)N1Cc2ccccc2C2(CCN(C(=O)NC3C4CC5CC(C4)CC3C5)CC2)C1` (stereo not drawn) [Example 36, Ethyl 1′-((2-adamantyl)carbamoyl)-1H-spiro[isoquinoline-4,4′-piperidine]-2(3H)-carboxylate], for which the IC50 was below 50 nM.

For `COc1ccc2c(c1)CCNC21CCN(C(=O)NC2C3CC4CC(C3)CC2C4)CC1` (stereo not drawn) [Example 77, N-(2-Adamantyl)-6-methoxy-3,4-dihydro-2H-spiro[isoquinoline-1,4′-piperidine]-1′-carboxamide], the half-maximal inhibitory concentration (IC50) is below 50 nM.
